{
  "source": "patent US8329693B2",
  "about": "“Method for the prevention of thromboembolic disorders” (Orion Corporation, priority 2004, dated 2012)",
  "key": {"[1]": {"test_system": "Dahl SS rats on high-salt diet", "test": "Functional observational battery (FOB), Dahl salt-sensitive rat stroke model", "assay_type": "in vivo", "conditions": "weeks 1-8, levosimendan 1 mg/kg/day", "experimental": "(§1) Dahl SS rats were divided into three treatment groups: High-Salt diet+vehicle (n=20), High-Salt diet+Levosimendan 1 mg/kg/day (n=20), and Normal-Salt diet control (n=4). High salt diet contained 7% of NaCl in commercial low salt diet. Feeding with the high-salt diet was started at the age of 6 weeks and continued 7 weeks until the end of the study. Levosimendan was administered via drinking water (2 mg/l of levosimendan in drinking water). The administration was started at the same time as the high-salt diet and continued until the end of the study. The consumption of drinking water and food as well as the body weight and general health of the animals were monitored. MRI was performed once-a-week during the weeks 2-8. FOB and 7-point Neuroscore testing were performed once-a-week during the weeks 1-3 and twice-a-week during weeks the 4-8.\n(§2) Functional observational battery (FOB) and Neuroscore testing were performed once-a-week during weeks 1-3 and twice-a-week during weeks 4-8.\nAll rats were observed using standardized procedures. The procedures included observation of rats in the home cage, while moving in open arena and through manipulative tests. The measures included:\n(1) Home-Cage Measurements:\nBody position, Respiration, Vocalization and Palpebral closure.\n(2) Hand-Held Observations: […]"}, "[2]": {"test_system": "Dahl SS rats on high-salt diet", "test": "Seven-point Neuroscore test, Dahl salt-sensitive rat stroke model", "assay_type": "in vivo", "conditions": "throughout the study (weeks 1-8); grade 6 = normal", "experimental": "as §1, §2\nA seven-point neuroscore test was used to assess motor and behavioral deficits (modified from Zausinger et al. Brain Res. 863:94-105, 2000). The neurological test was conducted by an investigator blinded to the treatment status of the rats. The seven-point scale was as follows:\nGrade 6: Normal extension of both forelimbs towards the floor when lifted gently by the tail. […]"}, "[3]": {"test_system": "Dahl salt-sensitive rats on high salt diet", "test": "Effects on mortality in salt sensitive rat model (Experiment 1)", "assay_type": "in vivo", "source_text": "Effect of levosimendan on early stage mortality of Dahl salt-sensitive rats was studied. Dahl salt-sensitive rats on high salt diet develop hypertension and increased mortality. In the early stages of hypertension the incidence of death is almost entirely due to stroke and sudden death. See Qu, P. et al., Hypertens. Res., 2000; 23:613-623.\n6-week-old male Dahl salt-sensitive rats (SS/JrHsd) received the following diet and drug regimens for 7 weeks: 1) Dahl SS controls on high salt diet, 2) Dahl SS rats on high salt diet+high-dose levosimendan (10 mg/l of levosimendan in drinking water), 3) Dahl SS rats on high salt diet+low-dose levosimendan (1 mg/l of levosimendan in drinking water) and 4) Dahl SS controls on low salt diet. High salt diet was produced by adding NaCl to commercial low salt diet.\nOnly 38% (9/24) of rats on high salt diet survived the 7-week follow up period."}, "[4]": {"test_system": "Kininogen", "test": "Effect on kininogen expression in rat heart (2-DE gels, silver staining, MALDI-TOF)", "assay_type": "in vivo, Rattus novergicus", "conditions": "levosimendan orally 20 mg/l in tab water for eight days", "experimental": "Rats were given levosimendan orally 20 mg/l in tab water and controls only tab water for eight days. Hearts were frozen in liquid nitrogen and stored at −80° C. The heart tissues were lyophilized on ice over night and incubated in lysis buffer; 9 M urea, 20 mM Tris-HCl pH 7.4, 50 mM KCl, 3 mM EDTA pH 7.5, 0.5% IPG buffer 3-10 NL, 5 mM PMSF, 1% DTT and Benzoase 100 Units for 10 min at room temperature. The protein solution was then sonicated 2×15 s and centrifuged at 14000 rpm for 5 min. The supernatants were collected and the protein amount measured based on the protein assay kit from BioRad. 40 μg protein solution was diluted in 350 μl of rehydration buffer; 7 M urea, 2 M thiourea, 2 mM TBP, 0.5% IPG buffer 3-10 NL, 4% CHAPS and 0.2% BFB, incubated for 30 min at room temperature and centrifuged for 5 min at 14000 rpm. […]\nThe focused strips were equilibrated in the following buffer: 6 M urea, 50 mM Tris-HCl, pH 8.8, 2% SDS, 30% glycerol, 2% DTT, 2.5% iodoacetamide and 0.2% BFB 2×10 min at room temperature. […] The silver stained gels were analyzed by PD-QUEST(6.2) 2-DE software (BIO-RAD). […]\nAll samples were prepared by reversed phase pipette tips C18 (ZipTip, Millipore). […] The samples were analyzed in a TOF mass spectrometer (Voyager-DE PRO). […] The masses of the obtained peptides were analysed by the MS-fit program on the Expasy Molecular Biology server PeptIdent."}, "[5]": {"test_system": "salt sensitive rat model", "test": "Stroke in salt sensitive rat model (summary statements)", "assay_type": "in vivo", "conditions": "preventative treatment"}},
  "note": "“Also recorded” adds a separate entry of the source.",
  "data": [
    {"smiles": "CC1CC(=O)NN=C1c1ccc(NN=C(C#N)C#N)cc1", "note": "(single isomer, unassigned; (-)) [levosimendan, (−)-enantiomer of [[4-(1,4,5,6-tetrahydro-4-methyl-6-oxo-3-pyridazinyl)phenyl]hydrazono]propanedinitrile]", "values": [
      {"measurement": "stroke-associated behavioural deficits observed in FOB testing", "setting": "[1]", "result": "markedly reduce and postpone"},
      {"measurement": "seven-point Neuroscore", "setting": "[2]", "result": "scored maximum scores throughout the study"},
      {"measurement": "early stage mortality of salt-sensitive rats", "setting": "[3]; 7 weeks, levosimendan in drinking water", "result": "markedly reduced"},
      {"measurement": "rats that died during the 7-week follow up period", "setting": "[3]; high-dose levosimendan, 10 mg/l in drinking water", "result": "three out of 12"},
      {"measurement": "rats that died during the 7-week follow up period", "setting": "[3]; low-dose levosimendan, 1 mg/l in drinking water, n=12", "result": "None"},
      {"measurement": "kininogen protein expression in rat heart versus control", "setting": "[4]", "result": "ten fold up-regulated"},
      {"measurement": "incidence and volume of brain lesions, behavioural disorders and mortality associated with stroke", "setting": "[5]", "result": "reduces and/or postpones; also recorded: markedly reduce"}
    ]}
  ]
}
